Marks after values point to notes of the source that are not given here.
Experiments:
NH4OH exposured mice [1] = assay: Antitussive assay: trachea and lung histopathology; assay type: in vivo; settings: 50 mg/kg orally, 11 days
Experimental: SKOG were suspended in distilled water as 40, 20 and 10 mg/ml concentration, and orally administered in a volume of 10 ml/kg (as equivalence to 400, 200 and 100 mg/kg), once a day for 11 days before NH4OH exposure. In addition, AR and KOG were also suspended in distilled water as 40 mg/ml concentration, and orally administered in a volume of 10 ml/kg (as equivalence to 400, 200 and 100 mg/kg), once a day for 11 days before NH4OH exposure. TB was also dissolved in distilled water as 5 mg/ml concentrations, and also orally administered in a volume of 10 ml/kg (as equivalence to 50 mg/kg), once a day for 11 days before NH4OH exposure. In intact vehicle and NH4OH control mice, distilled water 10 ml/kg was orally administered, instead of AR, KOG, SKOG or TB to provide same restrain stresses, in the present experiment. After video image acquirement, some parts of individual lung (left lateral lobes) and trachea (3 mm from thyroid cartilages) were sampled and fixed in 10% neutral buffered formalin (NBF), and crossly trimmed. Then embedded in paraffin, sectioned (3˜4 μm) and stained with Hematoxylin and eosin (H&E) for general histopathology or toluidine blue for mast cells, and after that the histopathological profiles of each sample were observed under light microscope (Model Eclipse 80i, Nikon, Tokyo, Japan). […] The histopathologist was blinds to group distribution when this analysis was made, and at least five repeated measurements in same histological specimens prepared were considered to calculate each mean histomorphometrical value, whenever possible, in this histopathological evaluation (FIG. 4).

[2] = Body weight measurements, antitussive assay; assay type: in vivo, mice; settings: 50 mg/kg orally
Experimental: One-hundred thirty two 6-week male SPF/VAF CrljOri:CD1 [ICR] mice (OrientBio, Seungnam, Korea; body weight ranged in 29-32 g upon receipt) were prepared, and eight groups of 10 mice each were selected based on the body weights at 7 days after acclimatization based on the body weights (intact control: 34.30±1.74 g, ranged in 31.8-37.0 g; NH4OH treated mice: 34.17±1.32 g, ranged in 31.0-37.3 g), as follows.
SKOG were suspended in distilled water as 40, 20 and 10 mg/ml concentration, and orally administered in a volume of 10 ml/kg (as equivalence to 400, 200 and 100 mg/kg), once a day for 11 days before NH4OH exposure. In addition, AR and KOG were also suspended in distilled water as 40 mg/ml concentration, and orally administered in a volume of 10 ml/kg (as equivalence to 400, 200 and 100 mg/kg), once a day for 11 days before NH4OH exposure. TB was also dissolved in distilled water as 5 mg/ml concentrations, and also orally administered in a volume of 10 ml/kg (as equivalence to 50 mg/kg), once a day for 11 days before NH4OH exposure. In intact vehicle and NH4OH control mice, distilled water 10 ml/kg was orally administered, instead of AR, KOG, SKOG or TB to provide same restrain stresses, in the present experiment.
Changes of body weight were measured at once a day from 1 day before initial to end of last 11th oral administration of AR, KOG, SKOG or TB using an automatic laboratory animal weighing electronic balance (Precisa Instrument, Dietikon, Switzland). Animals were overnight fasted (about 18 hours, water was not restricted) before initial test substance administration and sacrifice to reduced individual differences from feeding, and also to reduce the individual body weight differences at start of experiment, the body weight gains during 11 days of oral administration of AR, KOG, SKOG or TB were calculated as follow Equation [1], in the current experiment. Body weight gains during 11 days of oral administration of test substances[B−A]=Body weights at last administration[B]−Body weights at first administration[A] Equation [1]

[3] = system: xylene topically applied mice; assay: Anti-inflammatory assay: ear histopathology; assay type: in vivo; settings: 50 mg/kg orally, 11 days; xylene topically applied mice
Experimental: AR, KOG and SKOG were orally administered as same as antitussive and expectorant assays, once a day for 11 days before xylene topical applications. In addition, DEXA-water soluble granules were dissolved indistilled water as 1.5 mg/ml concentrations (0.1 mg/ml based on DEXA itself), and also orally administered in a volume of 10 ml/kg (as equivalence to 1 mg/kg based on DEXA itself), once a day for 11 days before xylene topical applications. In intact vehicle and xylene control mice, distilled water 10 ml/kg was orally administered, instead of AR, KOG, SKOG or DEXA to provide same restrain stresses, in the present experiment.
Acute inflammations were induced by single topical application of 0.03 ml of xylene (Duksan Pure Chemical Co. Ltd., Ansan, Korea) to the anterior surface of the right ear at 1 hour after last 11th test substance administration, as described previously with some modifications. Equal volume of saline was topically applied in intact vehicle mouse ears, instead of xylene, in our experiment.
After ear weight measurement, individual ear samples were fixed in 10% NBF, and crossly trimmed. Then embedded in paraffin, sectioned (3˜4 μm) and stained with Hematoxylin and eosin (H&E) for general histopathology or toluidine blue for mast cells, and after that the histopathological profiles of each sample were observed under light microscope. To more detail changes, mean total, epidermis and dermis thicknesses of the ear anterior surface, numbers of infiltrated inflammatory cells and mast cells on the dermis of ear (cells/mm^2), collagen occupied region percentages on the dermis (%/mm2) were analyzed using a computer assisted image analysis program, according to previously established methods, respectively. The histopathologist was blinds to group distribution when this analysis was made, and at least five repeated measurements in same histological specimens prepared were considered to calculate each mean histomorphometrical value, whenever possible, in this histopathological evaluation.

NH4OH exposured mice [4] = assay: Antitussive assay: NH4OH-induced coughing responses; assay type: in vivo; settings: 50 mg/kg orally, 11 days; compared with NH4OH control mice
Experimental: NH4OH treated mice: 34.17±1.32 g, ranged in 31.0-37.3 g), as follows. SKOG were suspended in distilled water as 40, 20 and 10 mg/ml concentration, and orally administered in a volume of 10 ml/kg (as equivalence to 400, 200 and 100 mg/kg), once a day for 11 days before NH4OH exposure. In addition, AR and KOG were also suspended in distilled water as 40 mg/ml concentration, and orally administered in a volume of 10 ml/kg (as equivalence to 400, 200 and 100 mg/kg), once a day for 11 days before NH4OH exposure. TB was also dissolved in distilled water as 5 mg/ml concentrations, and also orally administered in a volume of 10 ml/kg (as equivalence to 50 mg/kg), once a day for 11 days before NH4OH exposure. In intact vehicle and NH4OH control mice, distilled water 10 ml/kg was orally administered, instead of AR, KOG, SKOG or TB to provide same restrain stresses, in the present experiment. Coughing was induced by single inhalation of 25% NH4OH (Sigma-Aldrich, St. […] Individual intact vehicle control mouse was exposured to 0.3 ml of saline contained 1,000 ml glass Erlenmeyer flask for 45 sec, instead of NH4OH, in this experiment. The criteria to define cough in mice is that opening the mouth accompanying sound of coughing, contraction of thoracic and abdomen muscles, and a jerking of the front body.

[5] = compared with NH4OH control mice

Cn1cnc2c1c(=O)[nH]c(=O)n2C [TB, theobromine]
Cells Inflammatory (trachea) (NH4OH exposured mice [1]; NH4OH exposured mice): 167.40 ± 40.26^hi Numbers/mm^2
Cells Mast (trachea) (NH4OH exposured mice [1]; NH4OH exposured mice): 14.30 ± 4.60^hi Numbers/mm^2
Diameter of lumen (trachea) (NH4OH exposured mice [1]; NH4OH exposured mice): 860.11 ± 100.75^ac μm
Thickness Epithelium (trachea) (NH4OH exposured mice [1]; NH4OH exposured mice): 24.21 ± 4.36^hi μm
Thickness Submucosa (trachea) (NH4OH exposured mice [1]; NH4OH exposured mice): 47.31 ± 11.39^hi μm
Thickness Total wall (trachea) (NH4OH exposured mice [1]; NH4OH exposured mice): 191.23 ± 10.24^hi μm
Alveolar surface area (NH4OH exposured mice [1]; NH4OH exposured mice, lung): 51.13 ± 5.95^ac %
Septum thickness (NH4OH exposured mice [1]; NH4OH exposured mice, lung): 30.53 ± 10.06^gh μm
inflammatory cells (alveolar septum) (NH4OH exposured mice [1]; NH4OH exposured mice, lung): 492.00 ± 114.18^gh numbers/mm^2
Mean ASA, change (NH4OH exposured mice [1]; [5]): 65.26%
Mean diameters of trachea lumen, change (NH4OH exposured mice [1]; [5]): 30.60%
Mean numbers of infiltrated inflammatory cells on the alveolar septum, change (NH4OH exposured mice [1]; [5]): −73.92%
Mean numbers of infiltrated inflammatory cells on the trachea, change (NH4OH exposured mice [1]; [5]): −62.74%
Mean numbers of infiltrated mast cells on the trachea, change (NH4OH exposured mice [1]; [5]): −63.05%
Mean thicknesses of alveolar septum, change (NH4OH exposured mice [1]; [5]): −57.84%
Mean thicknesses of trachea epithelium, change (NH4OH exposured mice [1]; [5]): −35.48%
Mean thicknesses of trachea submucosa, change (NH4OH exposured mice [1]; [5]): −47.27%
Mean thicknesses of trachea wall, change (NH4OH exposured mice [1]; [5]): −13.23%
Body weight gains (g) [B − A] ([2]; 11 days, NH4OH exposured mice): 1.71 ± 0.97 g
Body weights (g) at test material administration First [A] ([2]; 11 days, NH4OH exposured mice): 29.23 ± 1.49 g
Body weights (g) at test material administration Last [B] ([2]; 11 days, NH4OH exposured mice): 30.94 ± 1.77 g
body weight gains during 11 days, change [2, 5]: 2.40%
Cells Inflammatory (ear dermis) [3]: 10.10 ± 10.54^fh Numbers/mm^2
Cells Mast (ear dermis) [3]: 61.30 ± 12.65^c Numbers/mm^2
Collagen fiber [3]: 77.43 ± 12.79^h %/mm^2 of dermis
Thickness Dermis (ear) [3]: 52.33 ± 13.72^h μm
Thickness Epidermis (ear) [3]: 8.50 ± 1.65 μm
Thickness Total (ear) [3]: 99.55 ± 9.57^h μm
Mean numbers of coughing responses during 6 min after 45 sec exposure of NH4OH, change (NH4OH exposured mice [4]): −59.04%

Source: patent publication US11129861B2, “Methods for treating inflammatory diseases” (OKCHUNDANG CO., LTD., priority 2017, dated 2021)
